From publication PMC3767324, “Synthesis, Characterization, and BSA Binding Studies of Some New Benzamides Related to Schiff Base” (ISRN Organic Chemistry, 2013)
≈ marks a conversion by molar mass, not a printed value.

Tests used:
[1] = test system: A. niger; test: agar disc diffusion, zone of inhibition; type: cell-based; settings: Aspergillus niger, 48 h
Procedure: [The procedure below names another organism; the source lists this organism under the same test.] (§1) The in vitro antimicrobial screening effects of the compounds (3 and 5a–j) were individually tested against a panel of bacteria and fungi including Staphylococcus aureus (NCIM 5021), Bacillus subtilis (NCIM 2999), Pseudomonas aeruginosa (NCIM 5029), Escherichia coli (NCIM 2574), Candida. albicans (NCIM 3471), and Aspergillus flavus (NCIM 524). Microbial strains were cultured overnight at 37°C in nutrient and potato dextrose agar medium. All the pure microbial strains were obtained from National Chemical Laboratory (NCL), Pune, India.
(§2) The antibacterial activity of compounds was determined by agar disc diffusion method. Briefly, a suspension of tested bacterial strains was spread on the nutrient agar medium and potato dextrose agar for fungi. The discs (6 mm in diameter) impregnated with test chemicals each dissolved in concentration (100 μg/mL in DMSO) were placed on the inoculated agar and these plates were kept at 4°C for 2 h. The plate was incubated at 37°C for 24 h in case of bacteria and 48 h at 28°C in case of fungi. streptomycin (10 μg/disc) and fluconazole (10 μg/disc) were used as the standards for antibacterial and antifungal activity, respectively. All the samples were performed in triplicate and the zone of inhibition was measured in millimeters.

[2] = test system: Aspergillus flavus (NCIM 524); test: agar disc diffusion, zone of inhibition; type: cell-based; settings: Aspergillus flavus, NCIM524, 48 h
Procedure: as §1, §2

[3] = test system: Bacillus subtilis (NCIM 2999); test: agar disc diffusion, zone of inhibition; type: cell-based; settings: Bacillus subtilis, NCIM2999, 24 h
Procedure: as §1, §2

[4] = test system: Escherichia coli (NCIM 2574); test: agar disc diffusion, zone of inhibition; type: cell-based; settings: Escherichia coli, NCIM2574, 24 h
Procedure: as §1, §2

[5] = test system: Pseudomonas aeruginosa (NCIM 5029); test: agar disc diffusion, zone of inhibition; type: cell-based; settings: Pseudomonas aeruginosa, NCIM5029, 24 h
Procedure: as §1, §2

[6] = test system: Staphylococcus aureus (NCIM 5021); test: agar disc diffusion, zone of inhibition; type: cell-based; settings: Staphylococcus aureus, NCIM5021, 24 h
Procedure: as §1, §2

[7] = test system: A. niger; test: minimum inhibitory concentration by dilution method; type: cell-based
[8] = test system: Pseudomonas aeruginosa (NCIM 5029); test: as above; type: cell-based; settings: Pseudomonas aeruginosa, NCIM5029
[9] = superoxide radical scavenging assay (NBT, xanthine-xanthine oxidase system); type: biochemical; settings: NBT reduction, pH 7.8, 560 nm, three replicates
Procedure: Superoxide radical scavenging activity was measured as described by Kovala-Demertzi et al., (2004). The assay is based on the reduction of nitroblue tetrazolium (NBT) by superoxide ions generated by the xanthine-xanthine oxidase system (X–XO). The reaction system contained 0.2 mM xanthine and 0.6 mM NBT in 0.1 M phosphate buffer, pH 7.8. The tested compounds were dissolved in methanol. The reaction was started by addition of XO (0.07 U mL^−1), an activity which allowed to yield the absorbance change between 0.03 and 0.04 per minute, at 560 nm. The extent of NBT reduction was followed spectrophotometrically, by measuring the increase of the absorbance at 560 nm. All the experiments were replicated three times. The IC50 of each compound was defined as the concentration which inhibited 50% of the NBT reduction by O2 ^•− produced in the X–XO system.
Superoxide anion radical is normally initially formed, and its effects can be magnified because it produces other kinds of free radicals and oxidizing agents. The enzymatic superoxide anion radical was generated by the xanthine/xanthine oxidase reaction system. The production of superoxide was estimated by the nitroblue tetrazolium method. […] Differently, in the m-position, methoxy and hydroxyl groups act as an electron-withdrawing properties, ([…]), which are possible for providing a destabilizing effect.

| SMILES | zone of inhibition at 100 µg/mL [1] | zone of inhibition at 100 µg/mL [2] | zone of inhibition at 100 µg/mL [3] | zone of inhibition at 100 µg/mL [4] | zone of inhibition at 100 µg/mL [5] | zone of inhibition at 100 µg/mL [6] | MIC ([7]; A. niger, dilution method, average of three replicates) | MIC ([7]; Aspergillus niger) | MIC [8] | IC50 Superoxide [9] |
| --- | --- | --- | --- | --- | --- | --- | --- | --- | --- | --- |
| CC(=O)N(C(=O)c1cc(F)c(F)c(F)c1)c1ccc(N=Cc2cc3ccccc3o2)cc1 [Compound 5g, N-acetyl-N-(4-(benzofuran-2-ylmethyleneamino)phenyl)-3,4,5-trifluorobenzamide] | 13.2 mm | 14 mm | 13.5 mm | 12.7 mm | 14 mm | 13.6 mm | 10 µg/mL (≈ 22.9 µM) | 10 µg/mL (≈ 22.9 µM) | 10 µg/mL (≈ 22.9 µM) | 123 ± 0.44 µg/mL (≈ 282 µM) |
| COc1ccc(C(=O)N(C(C)=O)c2ccc(N=Cc3cc4ccccc4o3)cc2)cc1 [Compound 5i, N-acetyl-N-(4-(benzofuran-2-ylmethyleneamino)phenyl)-4-methoxybenzamide] | 10 mm | 14 mm | 10 mm | 11 mm | 13 mm | 14 mm | – | 35 µg/mL (≈ 84.9 µM) | 35 µg/mL (≈ 84.9 µM) | 14.3 ± 0.23 µg/mL (≈ 34.7 µM) |
| CC(=O)N(C(=O)c1ccccc1)c1ccc(N=Cc2cc3ccccc3o2)cc1 [Compound 5c, N-acetyl-N -(4-((benzofuran-2-ylmethylene)amino)phenyl)benzamide] | 9 mm | 15 mm | 10 mm | 15 mm | 12 mm | 11 mm | – | 40 µg/mL (≈ 105 µM) | 50 µg/mL (≈ 131 µM) | 60.9 ± 0.28 µg/mL (≈ 159 µM) |
| CC(=O)N(C(=O)c1cc(F)ccc1F)c1ccc(N=Cc2cc3ccccc3o2)cc1 [Compound 5a, N-acetyl-N-(4-((benzofuran-2-ylmethylene)amino)phenyl)-2,5-difluorobenzamide] | 11 mm | 10.4 mm | 16 mm | 12 mm | 14 mm | 11 mm | – | 15 µg/mL (≈ 35.9 µM) | 25 µg/mL (≈ 59.8 µM) | 91.3 ± 0.26 µg/mL (≈ 218 µM) |
| CC(=O)N(C(=O)c1ccc(O)cc1)c1ccc(N=Cc2cc3ccccc3o2)cc1 [Compound 5j, N-acetyl-N-(4-((benzofuran-2-ylmethylene)amino)phenyl)-4-hydroxybenzamide] | 9 mm | 15 mm | 9 mm | 11 mm | 13 mm | 12 mm | – | 40 µg/mL (≈ 100 µM) | 50 µg/mL (≈ 125 µM) | 11.6 ± 0.04 µg/mL (≈ 29.1 µM) |
| CC(=O)N(C(=O)c1cc(F)cc(F)c1)c1ccc(N=Cc2cc3ccccc3o2)cc1 [Compound 5h, N-acetyl-N-(4-((benzofuran-2-ylmethylene)amino)phenyl)-3,5-difluorobenzamide] | 11.4 mm | 10.9 mm | 12 mm | 11 mm | 17 mm | 14 mm | – | 10 µg/mL (≈ 23.9 µM) | 25 µg/mL (≈ 59.8 µM) | 96.1 ± 0.31 µg/mL (≈ 230 µM) |
